Data on 96 compounds can be found in a flash point compilation (Sun et al. 2020).

Molecules are shown by their SMILES. Where a name gives a salt, the structure may show the parent alone.

`C1=CCCC=C1` [cyclohexa-1,3-diene] registered a flash point of 26.00 °C.
In turn, `SC1CCCCC1` [cyclohexanethiol] came in with a flash point of 43.00 °C.
Turning to `O=C1CCCCC1` [cyclohexanone], the flash point is 44.00 °C.
For the compound `C1=CCCCC1` [cyclohexene], the flash point was -12.00 °C.
In turn, `[Ni+2].c1cc[cH-]c1.c1cc[cH-]c1` [cyclopenta-1,3-diene;nickel(2+)] showed a flash point of 4.00 °C.
For `C=CCCCCCCCC` [dec-1-ene] the value was 53.00 °C; for `CCCCCCCCCC=O` [decanal], 85.00 °C; for `CCCCCCCCCCS` [decane-1-thiol], 98.00 °C.
With `O=C(O)CCCCCCCCC(=O)O` [decanedioic acid], the flash point is 220.00 °C.
Compound `CCCCCCCCCC(=O)O` [decanoic acid] yielded a flash point of 113.00 °C.
`CCCCCCCCCCc1ccccc1` [decylbenzene] had a flash point of 107.00 °C.
For `CCCCOC(=O)c1ccccc1C(=O)OCCCC` [dibutyl benzene-1,2-dicarboxylate] the value was 157.00 °C.
Regarding `CCCCOC(=O)CCCCCCCCC(=O)OCCCC` [dibutyl decanedioate], the flash point is 178.00 °C.
For `CCCCOC(=O)CCCCC(=O)OCCCC` [dibutyl hexanedioate] the value was 113.00 °C; for `CCCCOP(=O)(O)OCCCC` [dibutyl hydrogen phosphate], 188.00 °C; for `CCC[CH2][Sn]([Cl])([Cl])[CH2]CCC` [dibutyl(dichloro)stannane], 168.00 °C.
For `Cl[Si](Cl)(c1ccccc1)c1ccccc1` [dichloro(diphenyl)silane] the value was 142.00 °C; for `CCCCCCCCCCCCCCCCCC(=O)O.O.[Cl][Cr][Cl].[Cl][Cr][Cl]` [dichlorochromium;octadecanoic acid;hydrate], 2.00 °C.
The value for `CCCCCCCCCCOC(=O)c1ccccc1C(=O)OCCCCCCCCCC` [didecyl benzene-1,2-dicarboxylate] was 232.00 °C; that for `CCOC(=O)CC(=O)OCC` [diethyl propanedioate] was 93.00 °C.
The compound `CCCCCCOC(=O)c1ccccc1C(=O)OCCCCCC` [dihexyl benzene-1,2-dicarboxylate] had a flash point of 177.00 °C.
`CCCCCCOC(=O)CCCCC(=O)OCCCCCC` [dihexyl hexanedioate] displayed a flash point of 163.00 °C.
The value for `CCCCCCOC(=O)CCCCCCCC(=O)OCCCCCC` [dihexyl nonanedioate] was 204.00 °C; that for `COC(=O)c1ccccc1C(=O)OC` [dimethyl benzene-1,2-dicarboxylate] was 146.00 °C; that for `COC(=O)c1cccc(C(=O)OC)c1` [dimethyl benzene-1,3-dicarboxylate] was 138.00 °C.
`COC(=O)c1ccc(C(=O)OC)cc1` [dimethyl benzene-1,4-dicarboxylate] showed a flash point of 153.00 °C.
As for `COC(=O)CCCCC(=O)OC` [dimethyl hexanedioate], the flash point came to 107.00 °C.
In turn, `[CH3][Hg][CH3]` [dimethylmercury] showed a flash point of 5.00 °C.
The value for `CCCCCCCCCOC(=O)c1ccccc1C(=O)OCCCCCCCCC` [dinonyl benzene-1,2-dicarboxylate] was 216.00 °C; that for `CCCCCCCCOC(=O)CCCCC(=O)OCCCCCCCC` [dioctyl hexanedioate] was 196.00 °C; that for `CCCCCOC(=O)c1ccccc1C(=O)OCCCCC` [dipentyl benzene-1,2-dicarboxylate] was 181.00 °C.
For `CCCOC(=O)c1ccc(C(=O)OCCC)nc1` [dipropyl pyridine-2,5-dicarboxylate] the value was 93.00 °C; for `CCCCCCCCCCCCCOC(=O)c1ccccc1C(=O)OCCCCCCCCCCCCC` [ditridecyl benzene-1,2-dicarboxylate], 238.00 °C; for `C=CCCCCCCCCCC` [dodec-1-ene], 100.00 °C.
The value for `CCCCCCCCCCCCO` [dodecan-1-ol] was 127.00 °C; that for `CCCCCCCCCCCCS` [dodecane-1-thiol] was 88.00 °C.
In turn, `CCCCCCCCCCCCc1ccccc1` [dodecylbenzene] registered a flash point of 135.00 °C.
For `NCCN` [ethane-1,2-diamine] the value was 34.00 °C.
For `OCCO` [ethane-1,2-diol] the value was 111.00 °C; for `CC` [ethane], -135.00 °C.
For `CC(=O)OO` [ethaneperoxoic acid] the value was 41.00 °C; for `C=COC(C)=O` [ethenyl acetate], -8.00 °C; for `C=COC(=O)CCC` [ethenyl butanoate], 20.00 °C.
Take `CCOCC.FB(F)F` [ethoxyethane;trifluoroborane]: the flash point was 64.00 °C.
The compound `CCOC(=O)CCl` [ethyl 2-chloroacetate] yielded a flash point of 38.00 °C.
The value for `CCOC(=O)CC#N` [ethyl 2-cyanoacetate] was 110.00 °C.
Turning to `CCOC(=O)Cc1ccccc1` [ethyl 2-phenylacetate], the flash point came out at 99.00 °C.
For `CCOCCC(=O)OCC` [ethyl 3-ethoxypropanoate] the value was 59.00 °C; for `CCOC(=O)CC(C)=O` [ethyl 3-oxobutanoate], 57.00 °C.
Compound `CCOC(=O)NCCOc1ccc(Oc2ccccc2)cc1` [ethyl N-[2-(4-phenoxyphenoxy)ethyl]carbamate] had a flash point of 224.00 °C.
For `CCOC(C)=O` [ethyl acetate] the value was -4.00 °C; for `CCOP(=O)(O)O` [ethyl dihydrogen phosphate], 116.00 °C.
For `CCOC=O` [ethyl formate] the value was -20.00 °C; for `CCOS(C)(=O)=O` [ethyl methanesulfonate], 100.00 °C.
For `C=CC(=O)OCC` [ethyl prop-2-enoate] the value was 9.00 °C; for `CCc1ccccc1` [ethylbenzene], 15.00 °C; for `Fc1ccccc1` [fluorobenzene], -15.00 °C.
`C=O.O=C=Nc1ccccc1` [formaldehyde;isocyanatobenzene] had a flash point of 218.00 °C.
For `C=O` [formaldehyde] the value was 60.00 °C; for `NC=O` [formamide], 154.00 °C.
`O=CO` [formic acid]: the flash point is 69.00 °C.
The value for `O=C1C=CC(=O)O1` [furan-2,5-dione] was 103.00 °C; that for `NCc1ccco1` [furan-2-ylmethanamine] was 37.00 °C.
`C=CCCCCC` [hept-1-ene] showed a flash point of -4.00 °C.
On to `CCCCCCCS` [heptane-1-thiol], for which the flash point worked out at 46.00 °C.
The value for `C=CCCCC` [hex-1-ene] was -26.00 °C.
For `CCCCCCCCCCCCCCCCS` [hexadecane-1-thiol] the value was 102.00 °C.
The compound `CCCCCCN` [hexan-1-amine] displayed a flash point of 29.00 °C.
For `CCCCC(C)O` (stereo unspecified) [hexan-2-ol] the value was 41.00 °C; for `CCCCCCS` [hexane-1-thiol], 20.00 °C; for `CCCC(=O)C(C)=O` [hexane-2,3-dione], 28.00 °C.
`CC(=O)CCC(C)=O` [hexane-2,5-dione] yielded a flash point of 79.00 °C.
Regarding `N#CCCCCC#N` [hexanedinitrile], the flash point worked out at 93.00 °C.
`CCCCCC(=O)O` [hexanoic acid]: the flash point came out at 104.00 °C.
In turn, `C=C(C)C(=O)OCCCCCC` [hexyl 2-methylprop-2-enoate] gave a flash point of 82.00 °C.
Consider `CCCCCCOC(C)=O` [hexyl acetate], for which the flash point is 37.00 °C.
For `S=C1NCCN1` [imidazolidine-2-thione] the value was 252.00 °C; for `CCI` [iodoethane], 61.00 °C.
For `O=C=NC1CCCCC1` [isocyanatocyclohexane] the value was 49.00 °C.
As to `C` [methane], the flash point is -188.00 °C.
For `S=C=S` [methanedithione] the value was -30.00 °C.
The value for `CS` [methanethiol] was -18.00 °C; that for `CCOC` [methoxyethane] was -37.00 °C.
Regarding `C=COC` [methoxyethene], the flash point was -56.00 °C.
For `COC(=O)C(Cl)Cl` [methyl 2,2-dichloroacetate] the value was 80.00 °C; for `CNc1ccccc1C(=O)OC` [methyl 2-(methylamino)benzoate], 91.00 °C.
Compound `COC(=O)C(C)Oc1ccc(Oc2ccc(Cl)cc2Cl)cc1` (stereo unspecified) [methyl 2-[4-(2,4-dichlorophenoxy)phenoxy]propanoate] returned a flash point of 38.00 °C.
Compound `COC(=O)c1ccccc1O` [methyl 2-hydroxybenzoate] displayed a flash point of 96.00 °C.
As to `COS(=O)(=O)c1ccc(C)cc1` [methyl 4-methylbenzenesulfonate], the flash point turned out to be 152.00 °C.
`COC(=O)c1ccc(C)cc1` [methyl 4-methylbenzoate] displayed a flash point of 96.00 °C.
The value for `COC(=O)/C=C(\C)OP(=O)(OC)OC` [methyl (E)-3-dimethoxyphosphoryloxybut-2-enoate] was 79.00 °C; that for `COC(C)=O` [methyl acetate] was -10.00 °C.
In turn, `CCCC(=O)OC` [methyl butanoate] came in with a flash point of 14.00 °C.
`CCCCCC(=O)OC` [methyl hexanoate] returned a flash point of 73.00 °C.
Regarding `COS(C)(=O)=O` [methyl methanesulfonate], the flash point was determined as 104.00 °C.
Compound `CCCCCCCCCCCCCCCCCC(=O)OC` [methyl octadecanoate] gave a flash point of 153.00 °C.
